{
  "source": "patent US20170165286A1",
  "about": "“COMPOSITIONS AND METHODS FOR TREATING DIABETES AND LIVER DISEASES” (Cempra Pharmaceuticals, Inc., priority 2014, published 2017)",
  "key": {"STAM mice": {"test_system": "STAM mice", "assay": "STAM model: HE staining, NAFLD Activity score", "assay_type": "in vivo", "settings": "for NAFLD Activity Score: 5-9 wks", "procedure": "NASH-HCC (STAM™) Model. C57BL/6 (15-day-pregnant female) mice are obtained from Charles River Laboratories Japan (Kanagawa, Japan). Male pups are selected for the study. NASH is induced in male mice by a single subcutaneous injection of 200 μg streptozotocin (STZ, Sigma-Aldrich, USA) solution 2 days after birth, followed by feeding a HFD (57 kcal % fat, cat#: HFD32, CLEA Japan, Japan) beginning at 4 weeks of age. At 5 weeks of age, mice are divided into a control group and one or more treated group (generally 8 mice per group). Animals are sacrificed at 9 weeks of age, and biochemical, histological, and gene expression analyses are performed.\nDuring weeks 5-9 (starting at day 35±2), test compound is administered (generally orally) at various doses diluted to 10 mL/kg and according to various dosing protocols to treatment groups (8 mice each) while a second group (8 mice) is administered vehicle only. Animals are sacrificed at 9 weeks.\nHistopathological analyses. For HE staining, sections are cut from paraffin blocks of left lateral liver tissue prefixed in Bouin's solution and stained with Lillie-Mayer's Hematoxylin (Muto Pure Chemicals, Japan) and eosin solution (Wako Pure Chemical Industries). NAFLD Activity score (NAS) is calculated according to the criteria of Kleiner (Kleiner D E. et al., Hepatology, 2005; 41:1313). A NAS≧5 with steatosis and hepatocyte ballooning is generally considered diagnostic of NASH.\nIllustrative dose response test groups. Group 1-Normal. Eight normal mice are fed with a normal diet ad libitum without any treatment until 9 weeks of age. Group 2-Vehicle. Eight NASH mice are orally administered vehicle (0.5% w/v methylcellulose+0.2% Tween®80) in a volume of 10 mL/kg twice daily from 5 to 9 week of age. Group 3-solithromycin 5 mg/kg. Eight NASH mice are orally administered vehicle supplemented with solithromycin at a dose of 5 mg/kg in the morning and the vehicle in the evening (5 mg/kg/day) from 5 to 9 weeks of age. Group 4-solithromycin 10 mg/kg. Eight NASH mice are orally administered vehicle supplemented with solithromycin at a dose of 10 mg/kg twice daily (20 mg/kg/day) from 5 to 9 weeks of age. Group 5-solithromycin 25 mg/kg. Eight NASH mice are orally administered vehicle supplemented with solithromycin at a dose of 25 mg/kg twice daily (50 mg/kg/day) from 5 to 9 weeks of age. Group 6-solithromycin 50 mg/kg. Eight NASH mice are orally administered vehicle supplemented with solithromycin at a dose of 50 mg/kg once daily (50 mg/kg/day) from 5 to 9 weeks of age."}, "[1]": {"assay": "QT / tQT effects and plasma levels", "assay_type": "in vivo", "description": "The compounds described herein, including solithromycin, are effective in treating host animals with high cardiovascular disease risk."}, "[2]": {"assay": "Phase 1 study in subjects with hepatic impairment: pharmacokinetics and protein binding", "assay_type": "in vivo, humans", "parameters": "AUC(0-t): concentration or dose not given beside the values", "settings": "for AUC0-t Geometric Mean Ratio (%) (test/reference) / AUC0-tau Geometric Mean Ratio (%) (test/reference) / Cmax Geometric Mean Ratio (%) (test/reference) / AUC(0-t) / AUC / Cmax: Day 5; for AUC(0-t) / AUC / Cmax / half-life: human, plasma", "procedure": "Safety and Pharmacokinetics of solithromycin in Subjects with Hepatic Impairment. The safety, pharmacokinetics (PK), and protein binding of solithromycin was evaluated in subjects with mild, moderate, and severe hepatic impairment compared to healthy subjects with normal hepatic function (matched for age, weight, and gender). The evaluation was performed in a Phase 1, open-label, multiple-dose study in subjects with mild (Child-Pugh Class A), moderate (Child-Pugh Class B), and severe (Child-Pugh Class C) hepatic impairment and healthy matched control subjects with normal hepatic function. All subjects received a once-daily dose of 800 mg on Day 1 followed by 400 mg on Days 2 through 5.\nPK parameters on Day 5 were compared between the hepatic impaired cohorts and the control group, and geometric mean ratios were calculated."}},
  "note": "Where two headings read alike, the source gives them in different places.",
  "data": [
    {"molecule": "CC[C@H]1OC(=O)[C@@](C)(F)C(=O)[C@H](C)[C@@H](O[C@@H]2O[C@H](C)C[C@H](N(C)C)[C@H]2O)[C@](C)(OC)C[C@@H](C)C(=O)[C@H](C)[C@H]2N(CCCCn3cc(-c4cccc(N)c4)nn3)C(=O)O[C@]12C", "note": "[solithromycin]", "values": [
      {"measurement": "NAFLD Activity Score", "setting": "STAM mice; 5 mg/kg q.d. oral, 5 mg/kg", "value": "no statistically significant difference"},
      {"measurement": "NAFLD Activity Score", "setting": "STAM mice; 5 mg/kg q.d. oral, listed as Solithromycin, 5 mg/kg", "value": "4.8 ± 0.9"},
      {"measurement": "NAFLD Activity Score", "setting": "STAM mice; 10 mg/kg b.i.d. oral, 10 mg/kg", "value": "significantly decreased"},
      {"measurement": "NAFLD Activity Score", "setting": "STAM mice; 10 mg/kg b.i.d. oral, listed as Solithromycin, 10 mg/kg", "value": "3.3 ± 0.9"},
      {"measurement": "NAFLD Activity Score", "setting": "STAM mice; 25 mg/kg b.i.d. oral, 25 mg/kg", "value": "significantly decreased"},
      {"measurement": "NAFLD Activity Score", "setting": "STAM mice; 25 mg/kg b.i.d. oral, listed as Solithromycin, 25 mg/kg", "value": "2.9 ± 1.0"},
      {"measurement": "NAFLD Activity Score", "setting": "STAM mice; 50 mg/kg q.d. oral, 50 mg/kg", "value": "significant reduction"},
      {"measurement": "NAFLD Activity Score", "setting": "STAM mice; 50 mg/kg q.d. oral, listed as Solithromycin, 50 mg/kg", "value": "3.0 ± 0.9"},
      {"measurement": "Hepatocellular ballooning and inflammatory cell infiltration compared to vehicle group", "setting": "STAM mice; Groups 4-6", "value": "significant improvements"},
      {"measurement": "Plasma levels achieved", "setting": "[1]; PK analysis in QT evaluation", "value": "2000 to 3000", "unit": "ng/mL"},
      {"measurement": "QT or tQT prolongation", "setting": "[1]; dosed orally or intravenously", "value": "does not show any QT or tQT prolongation"},
      {"measurement": "AUC0-t Geometric Mean Ratio (%) (test/reference)", "setting": "[2]; Mild versus Control", "value": 117.44, "unit": "%"},
      {"measurement": "AUC0-tau Geometric Mean Ratio (%) (test/reference)", "setting": "[2]; Mild versus Control", "value": 75.30, "unit": "%"},
      {"measurement": "Cmax Geometric Mean Ratio (%) (test/reference)", "setting": "[2]; Mild versus Control", "value": 121.08, "unit": "%"},
      {"measurement": "AUC0-t Geometric Mean Ratio (%) (test/reference)", "setting": "[2]; Moderate versus Control", "value": 117.83, "unit": "%"},
      {"measurement": "AUC0-tau Geometric Mean Ratio (%) (test/reference)", "setting": "[2]; Moderate versus Control", "value": 71.58, "unit": "%"},
      {"measurement": "Cmax Geometric Mean Ratio (%) (test/reference)", "setting": "[2]; Moderate versus Control", "value": 105.36, "unit": "%"},
      {"measurement": "AUC0-t Geometric Mean Ratio (%) (test/reference)", "setting": "[2]; Severe versus Control", "value": 109.95, "unit": "%"},
      {"measurement": "AUC0-tau Geometric Mean Ratio (%) (test/reference)", "setting": "[2]; Severe versus Control", "value": 58.86, "unit": "%"},
      {"measurement": "Cmax Geometric Mean Ratio (%) (test/reference)", "setting": "[2]; Severe versus Control", "value": 77.69, "unit": "%"},
      {"measurement": "Accumulation on Day 5", "setting": "[2]; any of the hepatic impaired cohorts", "value": "No accumulation"},
      {"measurement": "AUC(0-t)", "setting": "[2]; healthy control subjects, read-out: AUC0-t (Reference Group)", "value": 7550, "unit": "ng·h/mL"},
      {"measurement": "AUC", "setting": "[2]; healthy control subjects, read-out: AUC0-tau (Reference Group)", "value": 10500, "unit": "ng·h/mL"},
      {"measurement": "Cmax", "setting": "[2]; healthy control subjects, read-out: Cmax (Reference Group)", "value": 649, "unit": "ng/mL"},
      {"measurement": "Cmax", "setting": "[2]; mild hepatic impairment, 800 mg Day 1, 400 mg Days 2-5, read-out: Cmax (Test Group)", "value": 786, "unit": "ng/mL"},
      {"measurement": "AUC(0-t)", "setting": "[2]; mild hepatic impairment, read-out: AUC0-t (Test Group)", "value": 8870, "unit": "ng·h/mL"},
      {"measurement": "AUC", "setting": "[2]; mild hepatic impairment, read-out: AUC0-tau (Test Group)", "value": 7900, "unit": "ng·h/mL"},
      {"measurement": "AUC(0-t)", "setting": "[2]; moderate hepatic impairment, read-out: AUC0-t (Test Group)", "value": 8900, "unit": "ng·h/mL"},
      {"measurement": "AUC", "setting": "[2]; moderate hepatic impairment, read-out: AUC0-tau (Test Group)", "value": 7510, "unit": "ng·h/mL"},
      {"measurement": "Cmax", "setting": "[2]; moderate hepatic impairment, read-out: Cmax (Test Group)", "value": 684, "unit": "ng/mL"},
      {"measurement": "AUC(0-t)", "setting": "[2]; severe hepatic impairment, read-out: AUC0-t (Test Group)", "value": 8310, "unit": "ng·h/mL"},
      {"measurement": "AUC", "setting": "[2]; severe hepatic impairment, read-out: AUC0-tau (Test Group)", "value": 6180, "unit": "ng·h/mL"},
      {"measurement": "Cmax", "setting": "[2]; severe hepatic impairment, read-out: Cmax (Test Group)", "value": 504, "unit": "ng/mL"},
      {"measurement": "half-life", "setting": "[2]; control", "value": 8.9, "unit": "h"},
      {"measurement": "half-life", "setting": "[2]; mild hepatic impairment", "value": 10.2, "unit": "h"},
      {"measurement": "half-life", "setting": "[2]; moderate hepatic impairment", "value": 10.4, "unit": "h"},
      {"measurement": "half-life", "setting": "[2]; severe hepatic impairment", "value": 15.7, "unit": "h"},
      {"measurement": "Mean plasma protein binding percentage at Day 5 Cmax", "setting": "[2]; mild or moderate hepatic impairment vs control", "value": "not significantly affected"},
      {"measurement": "Mean plasma protein binding percentage at Day 5 Cmax", "setting": "[2]; severe cohort vs control", "value": "slightly lower"}
    ]}
  ]
}
